Test results published in patent US9486434B2, “Method for delivery and use of isothiocyanates for prophylaxis and/or therapy of bladder cancer” (Health Research Inc., priority 2010, dated 2016).

How the values were obtained:
UM-UC-3 cells [1] = experiment: Cell cycle arrest by flow cytometry, UM-UC-3 cells; type: cell-based, human; settings: 24 h
Protocol: (§1) FIG. 3. The effect of AITC on cell survival and proliferation. AITC was evaluated at the indicated concentrations in human bladder cancer UM-UC-3 cells, rat bladder cancer AY-27 cells, and normal human bladder epithelial cells (HUC). A. Cell growth inhibition, measured by MTT assay, 72-h AITC treatment. IC50 was calculated from nonlinear regression curve fit. B. Cell cycle arrest (□, subG1; ? , G1; ? , 5; ▪, G2/M), measured by flow cytometry, 24 h AITC treatment. C. Apoptosis induction, measured by an ELISA assay, 24 h AITC treatment. Mean±SE, n=3-6), *P<0.05.
FIG. 4. Effect of AITC on mitosis, tubulin expression and apoptosis in human bladder cancer UM-UC-3 cells. Cells were treated with vehicle or AITC for 24 h (each numerical value is mean±SD). A. Flow cytometry analysis for cell cycle arrest. B. Wright-Giemsa staining for counting mitotic figures. Arrows point to cells in mitosis or mitotic catastrophe. C. Immunofluorescent staining of microtubules (green color) and DNA staining with DAPI (blue color). D. Western blotting of tubulins (GAPDH as a loading control). E. Loss of mitochondrial transmembrane potential (Δψm) measured by flow cytometry. […] G. Apoptotic cells (TUNEL cells) measured by flow cytometry. […]
FIG. 10. […] NAC-AITC was evaluated in both UM-UC-3 cells and AY-27 cells. […] (B) Cell growth and proliferation, measured by 3-([…])-2,5-diphenyltetrazolium bromide assay, 72 h treatment with AITC or NAC-AITC at indicated concentrations. IC50 was calculated from the non-linear regression curve fit. (C) Apoptosis, measured by an enzyme-linked immunosorbent assay, 24 h NAC-AITC treatment at 15 µM. (D) Cell cycle (open bars, G1; shaded bars, S; closed bars, G2/M), measured by flow cytometry, 24 h NAC-AITC treatment at 15 μM. *P<, 0.005, compared with control.
The effect of NAC-AITC on cell cycle progression was measured by flow cytometry as described previously. […] Induction of apoptosis by NAC-AITC was measured using the Cell Death Detection ELISA^plus kit (Roche Diagnostics, Indianapolis, Ind.), following the manufacturer's instruction. […]

AY-27 cells [2] = experiment: Cell cycle arrest by flow cytometry, AY-27 cells; type: cell-based, rat; settings: 24 h
Protocol: as §1
(§2) FIG. 10. The effect of NAC-AITC on cell survival and proliferation. NAC-AITC was evaluated in both UM-UC-3 cells and AY-27 cells. (A) Chemical structures of AITC and NAC-AITC. (B) Cell growth and proliferation, measured by 3-([…])-2,5-diphenyltetrazolium bromide assay, 72 h treatment with AITC or NAC-AITC at indicated concentrations. IC50 was calculated from the non-linear regression curve fit. (C) Apoptosis, measured by an enzyme-linked immunosorbent assay, 24 h NAC-AITC treatment at 15 µM. (D) Cell cycle (open bars, G1; shaded bars, S; closed bars, G2/M), measured by flow cytometry, 24 h NAC-AITC treatment at 15 μM. *P<, 0.005, compared with control.
The effect of NAC-AITC on cell cycle progression was measured by flow cytometry as described previously. Briefly, 1.5×10^6 AY-27 cells were grown in each 10-cm plate with 10 ml medium for 24 h and then treated with NAC-AITC or solvent for 24 h before analysis. Induction of apoptosis by NAC-AITC was measured using the Cell Death Detection ELISA^plus kit (Roche Diagnostics, Indianapolis, Ind.), following the manufacturer's instruction. […] At the end of treatment, the cells were treated with lysis buffer, and after a low-speed centrifugation, a portion of the supernatant fraction was used for spectroscopic measurement (expressed as A405-490 nm) of cytoplasmic levels of histone-associated mononucleosomes or oligonucleosomes by an enzyme-linked immunosorbent assay. […]

UM-UC-3 cells [3] = experiment: Apoptosis induction ELISA (histone-associated DNA), UM-UC-3 cells; type: cell-based, human; settings: 24 h
Protocol: as §1, §2
(§3) The effect of NAC-AITC on cell cycle progression was measured by flow cytometry as described previously. […]

AY-27 cells [4] = experiment: Apoptosis induction ELISA (histone-associated DNA), AY-27 cells; type: cell-based, rat; settings: 24 h
Protocol: as §1, §2, §3

[5] = system: orthotopic AY-27 bladder tumor; experiment: Orthotopic rat bladder cancer model; type: in vivo, rat (female F344); settings: for tumor-bearing bladders showing muscle invasion: control 71%
From the text: FIG. 6. […] Female F344 rats were inoculated intravesically with bladder cancer AY-27 cells to initiate development of orthotopic bladder tumor. Oral administration of AITC at 0, 10, 25, 50 and 300 micromols/kg once daily was started 1 day after AY-27 cell inoculation and ended 3 weeks later. The number of rats per group varied from 6 to 33; some of the data, particularly the control group (n=33) and the group treated with the lowest dose of AITC (n=23), were pooled from several experiments. A. The initial and final body weights. B. The weights of bladder tumors. […] C. Percentage of bladders where the tumor invaded the muscle tissue. D. H/E staining of the normal rat bladder wall (D1), a superficial rat bladder tumor (D2), and a rat bladder tumor that invaded the muscle layer (D3).
FIG. 8. […] Female F344 rats were inoculated with AY-27 cells intravesically via a urethra catheter to initiate development of orthotopic bladder cancer. Oral administration of MSP-1 of vehicle (water) once daily was started 1 day after cancer cell inoculation and ended 3 weeks later. The number of rats per group varied from 11-29. A. Initial (□) and final (▪) body weights. […] Each value in A and B is mean±SEM. C. Percentage of bladder where the tumor invaded the muscle tissue. D. The effects of MSP-1 on selected anticancer targets in UM-UC-3 cells (in vitro), AY-27 cells (in vitro) and AY-27 tumors (in vivo). […] The bladder tumors were removed from rats treated with MSP-1 at the sinigrin doses of 9 or 90 micromols/kg once daily for 3 weeks, started 1 day after cancer cell inoculation. Cell lysates and tumor homogenates were analyzed by Western blotting, using GAPDH as a loading control.
FIG. 9. […] Female F344 rats were inoculated with bladder cancer AY-27 cells to initiate development of orthotopic bladder tumor. Oral administration of the powder (sinigrin and glucoraphanin: each at 10 micromols/kg) once daily was started 1 day after AY-27 cell inoculation and ended 3 weeks later. The number of rats per group was 9-10. Each value is mean±SE.
FIG. 12. […] Bladder cancer was initiated in female F344 rats by orthotopic inoculation of bladder cancer AY-27 cells. Oral administration of NAC-AITC at 10 μmmol/kg body wt once daily was started 1 day after cancer cell inoculation and ended 3 weeks later. There were 23 rats in the control group and 15 rats in the treatment group. (A) The initial (open bars) and final (closed bars) body weight. (B) Bladder tumor weight. Each value is a mean±SE. (C) Percentage of bladders where the tumor invaded the muscle tissue.
AITC was evaluated in an orthotopic rat bladder cancer model. […] Daily oral administration of AITC was initiated one day after instillation of AY-27 cells and continued for 3 weeks. AITC was evaluated at 4 dose levels: 10, 25, 50 and 300 micromols/kg. […] FIG. 6D depicts representative images of normal rat bladder wall (D1), a superficial AY-27 rat bladder tumor (D2), and a muscle-invasive AY-27 rat bladder tumor (D3).
A syngeneic orthotopic rat bladder cancer model.

[6] = 10 μmol/kg body wt oral once daily, 3 weeks
[7] = AITC 7.5-15 microM, control 9.9-11.5%

| SMILES | cells in G2/M phase (UM-UC-3 cells [1]; NAC-AITC 15 µM, control 11-12%) | cells in G2/M phase (AY-27 cells [2]; NAC-AITC 15 µM, control 11-12%) | increase in apoptotic activity (UM-UC-3 cells [3]; 15 μM) | increase in apoptotic activity (AY-27 cells [4]; 15 μM) | inhibition of muscle invasion [5, 6] | inhibition of tumor growth [5, 6] | effect on body weight ([5]; NAC-AITC 10 μmol/kg daily, 3 weeks) | bladders with muscle invasion ([5]; NAC-AITC 10 μmol/kg, control 79%) | cells in G2/M phase (UM-UC-3 cells [1]; [7]) | increase in subG1 population (UM-UC-3 cells [1]; AITC) | cells in G2/M phase (AY-27 cells [2]; [7]) | increase in subG1 population (AY-27 cells [2]; AITC) | increase in cytoplasmic levels of histone-associated DNA (UM-UC-3 cells [3]; AITC) | increase in cytoplasmic levels of histone-associated DNA (AY-27 cells [4]; AITC) | tumor-bearing bladders showing muscle invasion ([5]; AITC 10 micromols/kg) | tumor-bearing bladders showing muscle invasion ([5]; AITC 25 micromols/kg) | tumor-bearing bladders showing muscle invasion ([5]; AITC 50 or 300 micromols/kg) | inhibition of orthotopic bladder cancer growth ([5]; AITC 300 micromols/kg oral daily, 3 weeks) | inhibition of tumor growth ([5]; AITC lower dose levels (10, 25, 50 micromols/kg) oral daily, 3 weeks) |
| --- | --- | --- | --- | --- | --- | --- | --- | --- | --- | --- | --- | --- | --- | --- | --- | --- | --- | --- | --- |
| C=CCNC(=S)SC[C@H](NC(C)=O)C(=O)O [NAC-AITC, N-acetyl-S—(N-allylthiocarbamoyl)cysteine] | 55% | 45% | 8.8 fold | 10.6 fold | 49% | 40% | no significant effect on body weight | 30% |  |  |  |  |  |  |  |  |  |  |  |
| C=CCN=C=S [AITC, allyl isothiocyanate] |  |  |  |  | 73% | 30% |  |  | up to 72% | up to 6.5 fold | ≤ 49% | ≤ 7.8 fold | up to 3.9 fold | ≤ 5.2 fold | 18.9% | 27% | 50% | 20% | 30% |
